Measurements reported in PubChem BioAssay (NCI).
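48-hour exposure; five concentrations; linearly interpolated endpoints. TGI denotes the concentration required for complete inhibition of growth.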

Experiments:
Experiment in all cases: NCI anticancer screen, dose series, 48 h
786-0 renal = system: 786-0 renal
A498 renal = system: A498 renal
A549 NSCLC = system: A549 NSCLC
ACHN renal = system: ACHN renal
BT-549 breast = system: BT-549 breast
CAKI-1 renal = system: CAKI-1 renal
CCRF-CEM leukemia = system: CCRF-CEM leukemia
COLO 205 colon = system: COLO 205 colon
DU-145 prostate = system: DU-145 prostate
EKVX NSCLC = system: EKVX NSCLC
HCT-116 colon = system: HCT-116 colon
HCT-15 colon = system: HCT-15 colon
HL-60(TB) leukemia = system: HL-60(TB) leukemia
HOP-62 NSCLC = system: HOP-62 NSCLC
HOP-92 NSCLC = system: HOP-92 NSCLC
HS 578T breast = system: HS 578T breast
HT29 colon = system: HT29 colon
IGROV1 ovarian = system: IGROV1 ovarian
K-562 leukemia = system: K-562 leukemia
LOX IMVI melanoma = system: LOX IMVI melanoma
M14 melanoma = system: M14 melanoma
MALME-3M melanoma = system: MALME-3M melanoma
MCF7 breast = system: MCF7 breast
MDA-MB-231 breast = system: MDA-MB-231 breast
MDA-MB-435 = system: MDA-MB-435
MDA-N = system: MDA-N
MOLT-4 leukemia = system: MOLT-4 leukemia
NCI-H226 lung = system: NCI-H226 lung
NCI-H23 lung = system: NCI-H23 lung
NCI-H522 lung = system: NCI-H522 lung
NCI/ADR-RES ovarian = system: NCI/ADR-RES ovarian
OVCAR-3 ovarian = system: OVCAR-3 ovarian
OVCAR-4 ovarian = system: OVCAR-4 ovarian
OVCAR-5 ovarian = system: OVCAR-5 ovarian
OVCAR-8 ovarian = system: OVCAR-8 ovarian
PC-3 prostate = system: PC-3 prostate
RPMI-8226 leukemia = system: RPMI-8226 leukemia
RXF 393 renal = system: RXF 393 renal
SF-268 CNS = system: SF-268 CNS
SF-295 CNS = system: SF-295 CNS
SF-539 CNS = system: SF-539 CNS
SK-MEL-2 melanoma = system: SK-MEL-2 melanoma
SK-MEL-28 melanoma = system: SK-MEL-28 melanoma
SK-MEL-5 melanoma = system: SK-MEL-5 melanoma
SK-OV-3 ovarian = system: SK-OV-3 ovarian
SN12C renal = system: SN12C renal
SNB-19 CNS = system: SNB-19 CNS
SNB-75 CNS = system: SNB-75 CNS
SR leukemia = system: SR leukemia
T-47D breast = system: T-47D breast
TK-10 renal = system: TK-10 renal
U251 CNS = system: U251 CNS
UACC-257 melanoma = system: UACC-257 melanoma
UACC-62 melanoma = system: UACC-62 melanoma
UO-31 renal = system: UO-31 renal
DLD-1 colon = system: DLD-1 colon
DMS 114 small cell lung = system: DMS 114 small cell lung
HCC-2998 colon = system: HCC-2998 colon
KM12 colon = system: KM12 colon
KM20L2 colon = system: KM20L2 colon
LXFL 529 NSCLC = system: LXFL 529 NSCLC
M19-MEL melanoma = system: M19-MEL melanoma
NCI-H460 lung = system: NCI-H460 lung
SNB-78 CNS = system: SNB-78 CNS
SW-620 colon = system: SW-620 colon

CN1C(=O)N(C)C2(CCN(CC(CC3OCCO3)c3ccc(F)cc3)CC2)C1=O (configuration not stated)
TGI (786-0 renal): > 100 µM | TGI (A498 renal): > 100 µM | TGI (A549 NSCLC): > 100 µM | TGI (ACHN renal): > 100 µM | TGI (BT-549 breast): > 100 µM | TGI (CAKI-1 renal): > 100 µM | TGI (CCRF-CEM leukemia): > 100 µM | TGI (COLO 205 colon): > 100 µM | TGI (DU-145 prostate): > 100 µM | TGI (EKVX NSCLC): > 100 µM | TGI (HCT-116 colon): > 100 µM | TGI (HCT-15 colon): > 100 µM | TGI (HL-60(TB) leukemia): > 100 µM | TGI (HOP-62 NSCLC): > 100 µM | TGI (HOP-92 NSCLC): > 100 µM | TGI (HS 578T breast): > 100 µM | TGI (HT29 colon): > 100 µM | TGI (IGROV1 ovarian): > 100 µM | TGI (K-562 leukemia): > 100 µM | TGI (LOX IMVI melanoma): > 100 µM | TGI (M14 melanoma): > 100 µM | TGI (MALME-3M melanoma): > 100 µM | TGI (MCF7 breast): > 100 µM | TGI (MDA-MB-231 breast): > 100 µM | TGI (MDA-MB-435): > 100 µM | TGI (MDA-N): > 100 µM | TGI (MOLT-4 leukemia): > 100 µM | TGI (NCI-H226 lung): > 100 µM | TGI (NCI-H23 lung): > 100 µM | TGI (NCI-H522 lung): > 100 µM | TGI (NCI/ADR-RES ovarian): > 100 µM | TGI (OVCAR-3 ovarian): > 100 µM | TGI (OVCAR-4 ovarian): > 100 µM | TGI (OVCAR-5 ovarian): > 100 µM | TGI (OVCAR-8 ovarian): > 100 µM | TGI (PC-3 prostate): > 100 µM | TGI (RPMI-8226 leukemia): > 100 µM | TGI (RXF 393 renal): > 100 µM | TGI (SF-268 CNS): > 100 µM | TGI (SF-295 CNS): > 100 µM | TGI (SF-539 CNS): > 100 µM | TGI (SK-MEL-2 melanoma): > 100 µM | TGI (SK-MEL-28 melanoma): > 100 µM | TGI (SK-MEL-5 melanoma): > 100 µM | TGI (SK-OV-3 ovarian): > 100 µM | TGI (SN12C renal): > 100 µM | TGI (SNB-19 CNS): > 100 µM | TGI (SNB-75 CNS): > 100 µM | TGI (SR leukemia): > 100 µM | TGI (T-47D breast): > 100 µM | TGI (TK-10 renal): > 100 µM | TGI (U251 CNS): > 100 µM | TGI (UACC-257 melanoma): > 100 µM | TGI (UACC-62 melanoma): > 100 µM | TGI (UO-31 renal): > 100 µM

CC1=C(C(=O)Nc2cccc(Cl)c2)C(c2ccccc2O)C(C(=O)Nc2cccc(Cl)c2)=C(C)N1
TGI (786-0 renal): 29.2 µM | TGI (A498 renal): 38 µM | TGI (A549 NSCLC): 43.8 µM | TGI (ACHN renal): 53.8 µM | TGI (CAKI-1 renal): 43.3 µM | TGI (CCRF-CEM leukemia): 50.2 µM | TGI (COLO 205 colon): 43.2 µM | TGI (DLD-1 colon): 33 µM | TGI (DMS 114 small cell lung): 54.6 µM | TGI (EKVX NSCLC): 47.6 µM | TGI (HCC-2998 colon): 33.1 µM | TGI (HL-60(TB) leukemia): 48.1 µM | TGI (HOP-62 NSCLC): 39.8 µM | TGI (HOP-92 NSCLC): 37 µM | TGI (HT29 colon): 35.7 µM | TGI (IGROV1 ovarian): 70.7 µM | TGI (K-562 leukemia): 53.7 µM | TGI (KM12 colon): 31.2 µM | TGI (KM20L2 colon): 37.7 µM | TGI (LOX IMVI melanoma): 39.7 µM | TGI (LXFL 529 NSCLC): 39.3 µM | TGI (M14 melanoma): 31.7 µM | TGI (M19-MEL melanoma): 40.6 µM | TGI (MALME-3M melanoma): 38.6 µM | TGI (MOLT-4 leukemia): 59.2 µM | TGI (NCI-H226 lung): 33.1 µM | TGI (NCI-H23 lung): 33.1 µM | TGI (NCI-H460 lung): 46.4 µM | TGI (NCI-H522 lung): 34.1 µM | TGI (OVCAR-3 ovarian): 40 µM | TGI (OVCAR-4 ovarian): 35.6 µM | TGI (OVCAR-5 ovarian): 38.6 µM | TGI (OVCAR-8 ovarian): 60.1 µM | TGI (RPMI-8226 leukemia): 46 µM | TGI (RXF 393 renal): 31.9 µM | TGI (SF-268 CNS): 37.9 µM | TGI (SF-295 CNS): 40.6 µM | TGI (SF-539 CNS): 34.3 µM | TGI (SK-MEL-2 melanoma): 32.2 µM | TGI (SK-MEL-28 melanoma): 31.9 µM | TGI (SK-MEL-5 melanoma): 31.5 µM | TGI (SK-OV-3 ovarian): 54.4 µM | TGI (SN12C renal): 39 µM | TGI (SNB-19 CNS): 52.1 µM | TGI (SNB-75 CNS): 43 µM | TGI (SNB-78 CNS): 57.2 µM | TGI (SW-620 colon): 35.8 µM | TGI (TK-10 renal): 39.5 µM | TGI (U251 CNS): 41.4 µM | TGI (UACC-257 melanoma): 36.6 µM | TGI (UO-31 renal): 31.3 µM

CCOC(=O)Oc1cc2ccsc2c2c1c1ccccc1n2C(=O)OCC
TGI (786-0 renal): > 100 µM | TGI (A498 renal): 32.6 µM | TGI (A549 NSCLC): > 100 µM | TGI (ACHN renal): 98.1 µM | TGI (BT-549 breast): > 100 µM | TGI (CAKI-1 renal): > 100 µM | TGI (CCRF-CEM leukemia): > 100 µM | TGI (COLO 205 colon): > 100 µM | TGI (DU-145 prostate): > 100 µM | TGI (EKVX NSCLC): > 100 µM | TGI (HCT-116 colon): > 100 µM | TGI (HCT-15 colon): > 100 µM | TGI (HOP-62 NSCLC): > 100 µM | TGI (HOP-92 NSCLC): 44.7 µM | TGI (HS 578T breast): > 100 µM | TGI (HT29 colon): > 100 µM | TGI (IGROV1 ovarian): > 100 µM | TGI (K-562 leukemia): > 100 µM | TGI (KM12 colon): > 100 µM | TGI (LOX IMVI melanoma): > 100 µM | TGI (M14 melanoma): > 100 µM | TGI (MALME-3M melanoma): > 100 µM | TGI (MCF7 breast): > 100 µM | TGI (MDA-MB-231 breast): > 100 µM | TGI (MDA-MB-435): > 100 µM | TGI (MDA-N): > 100 µM | TGI (MOLT-4 leukemia): > 100 µM | TGI (NCI-H226 lung): > 100 µM | TGI (NCI-H23 lung): > 100 µM | TGI (NCI-H460 lung): 86.1 µM | TGI (NCI-H522 lung): > 100 µM | TGI (NCI/ADR-RES ovarian): > 100 µM | TGI (OVCAR-3 ovarian): > 100 µM | TGI (OVCAR-4 ovarian): > 100 µM | TGI (OVCAR-5 ovarian): > 100 µM | TGI (OVCAR-8 ovarian): > 100 µM | TGI (PC-3 prostate): > 100 µM | TGI (RPMI-8226 leukemia): > 100 µM | TGI (RXF 393 renal): 45.8 µM | TGI (SF-268 CNS): > 100 µM | TGI (SF-295 CNS): > 100 µM | TGI (SF-539 CNS): > 100 µM | TGI (SK-MEL-2 melanoma): > 100 µM | TGI (SK-MEL-28 melanoma): > 100 µM | TGI (SK-MEL-5 melanoma): > 100 µM | TGI (SK-OV-3 ovarian): 84.9 µM | TGI (SN12C renal): > 100 µM | TGI (SNB-75 CNS): > 100 µM | TGI (SR leukemia): > 100 µM | TGI (SW-620 colon): > 100 µM | TGI (T-47D breast): > 100 µM | TGI (TK-10 renal): > 100 µM | TGI (U251 CNS): > 100 µM | TGI (UACC-257 melanoma): > 100 µM | TGI (UACC-62 melanoma): > 100 µM | TGI (UO-31 renal): 60.8 µM
